Laboratory results reported in US20080057529A1, “Method for Identifying Histone Deacetylase Inhibitors” (priority 2003, published 2008).

How the values were obtained:
clone 1.17 cells = experiment: Growth inhibition, CYTOSTAR 14C-thymidine uptake; format: cell-based; conditions: Homo sapiens, 48 h, read-out: ^14C-thymidine EC50
Procedure: Cells were seeded in a CYTOSTAR-T plate at about 7000 to 10000 cells per well in 100 μL of complete DMEM and incubated 4 hours at 37° C., 5% CO2. Next, 25 μL per well of HDAC inhibitor or DMSO (vehicle control) 5× solutions in complete DMEM was added to the wells along with 5 μL per well of ^14C-thymidine diluted 1:3 in H2O (1.65 μL of thymidine per well, 55 mCi/mmol; 225 μCi/mg; 50 μCi/mL (10 μM final concentration) and incubated at 37° C., 5% CO2. Incorporation of ^14C-thymidine was monitored after 24, 48, and 72 hours by reading the plate in a Packard Instruments TOP-COUNT (CYTOSTAR ^14C method).

CMV promoter [1] = experiment: Luc activity of co-transfected pCMV-Luc control plasmid in HeLa cells; format: cell-based, human; conditions: for Fold Ind. RLU: vs DMSO; for RLU norm mean / RLU/μg: Table 5; for RLU/μg: luciferase control plasmid not named
CMV promoter [2] = experiment: as above; format: cell-based, human; conditions: 400 nM, 12 hours
Procedure: (§1) The p21m-BLA reporter plasmid was tested in transient transfection experiments of HeLa cells to evaluate the responsiveness of the minimal p21 promoter and the Bla reporter system to known HDAC inhibitors. In the first two transfection experiments, HeLa cells were transfected with 1 or 2 μg of Bla reporter plasmid containing either p21 minimal promoter (p21m-BLA) or CMV promoter (CMV-BLA) and 0.1 μg of pCMV-Luc or pRSV-Luc control plasmids. Different DNA-FUGENE transfection reagent ratios were tested (FUGENE is available from Roche Applied Science, Indianapolis, Ind.). […] Data are summarized below in Tables 1 and 2.

RSV promoter = experiment: Luc activity of co-transfected pRSV-Luc control plasmid in HeLa cells; format: cell-based, human; conditions: Table 2, 400 nM, 12 hours
Procedure: as §1

HeLa cells = conditions: saturating amounts, after 48 hours; cited from earlier work
[3] = Table 3, 2 μg p21m-BLA + 0.1 μg pCMV-Luc, 6 hr treatment, TSA 300 nM, Apicidin 1 μM
[4] = Table 3, 2 μg p21m-BLA + 0.1 μg pCMV-Luc, 12 hr treatment, TSA 300 nM, Apicidin 1 μM
[5] = Table 3, 2 μg p21m-BLA + 0.1 μg pCMV-Luc, 24 hr treatment, TSA 300 nM, Apicidin 1 μM
[6] = Table 3, 2 μg pCMV-BLA + 0.1 μg pCMV-Luc, 6 hr treatment, TSA 300 nM, Apicidin 1 μM
[7] = Table 3, 2 μg pCMV-BLA + 0.1 μg pCMV-Luc, 12 hr treatment, TSA 300 nM, Apicidin 1 μM
[8] = Table 3, 2 μg pCMV-BLA + 0.1 μg pCMV-Luc, 24 hr treatment, TSA 300 nM, Apicidin 1 μM
[9] = Apicidin 1 μM, TSA 300 nM, P21m-SEAP 0 μg DNA
[10] = Apicidin 1 μM, TSA 300 nM, P21m-SEAP 0.1 μg DNA
[11] = Apicidin 1 μM, TSA 300 nM, P21m-SEAP 0.2 μg DNA
[12] = Apicidin 1 μM, TSA 300 nM, P21m-SEAP 0.5 μg DNA
[13] = Apicidin 1 μM, TSA 300 nM, P21m-SEAP 1 μg DNA
[14] = Apicidin 1 μM, TSA 300 nM, P21m-SEAP 2 μg DNA

For `CCC(=O)CCCCC[C@@H]1NC(=O)[C@H]2CCCCN2C(=O)[C@H]([C@@H](C)CC)NC(=O)[C@H](Cc2cn(OC)c3ccccc23)NC1=O` [Apicidin], the EC50 (clone 1.17 cells) was 410 nM, the RLU/mg (CMV promoter [1]; [3]) was 79723 RLU/mg and the “Fold Ind. RLU” value (CMV promoter [1]; Table 3, 2 μg p21m-BLA + 0.1 μg pCMV-Luc, 6 hr, TSA 300 nM, Apicidin 1 μM) was 3.6 fold. For the same molecule, the RLU/mg (CMV promoter [1]; [4]) was 183519 RLU/mg, the “Fold Ind. RLU” value (CMV promoter [1]; Table 3, 2 μg p21m-BLA + 0.1 μg pCMV-Luc, 12 hr, TSA 300 nM, Apicidin 1 μM) was 2.45 fold and the RLU/mg (CMV promoter [1]; [5]) was 131733 RLU/mg. The “Fold Ind. RLU” value (CMV promoter [1]; Table 3, 2 μg p21m-BLA + 0.1 μg pCMV-Luc, 24 hr, TSA 300 nM, Apicidin 1 μM) was 2.9 fold, the RLU/mg (CMV promoter [1]; [6]) was 10937 RLU/mg and the “Fold Ind. RLU” value (CMV promoter [1]; Table 3, 2 μg pCMV-BLA + 0.1 μg pCMV-Luc, 6 hr, TSA 300 nM, Apicidin 1 μM) was 2 fold. For the same molecule, the RLU/mg (CMV promoter [1]; [7]) was 39603.5 RLU/mg, the “Fold Ind. RLU” value (CMV promoter [1]; Table 3, 2 μg pCMV-BLA + 0.1 μg pCMV-Luc, 12 hr, TSA 300 nM, Apicidin 1 μM) was 3.6 fold and the RLU/mg (CMV promoter [1]; [8]) was 18932.5 RLU/mg. The “Fold Ind. RLU” value (CMV promoter [1]; Table 3, 2 μg pCMV-BLA + 0.1 μg pCMV-Luc, 24 hr, TSA 300 nM, Apicidin 1 μM) was 5.3 fold, the RLU norm mean (CMV promoter [1]; [9]) was 1.08 and the RLU/μg (CMV promoter [1]; [9]) was 102,236.00 RLU/μg. The RLU norm mean (CMV promoter [1]; [10]) was 1.17, the RLU/μg (CMV promoter [1]; [10]) was 111,192.67 RLU/μg and the RLU norm mean (CMV promoter [1]; [11]) was 1.14. For the same molecule, the RLU/μg (CMV promoter [1]; [11]) was 108,052.99 RLU/μg, the RLU norm mean (CMV promoter [1]; [12]) was 0.57 and the RLU/μg (CMV promoter [1]; [12]) was 54,363.72 RLU/μg. The RLU norm mean (CMV promoter [1]; [13]) was 1.14, the RLU/μg (CMV promoter [1]; [13]) was 108,153.75 RLU/μg and the RLU norm mean (CMV promoter [1]; [14]) was 0.90. For the same molecule, the RLU/μg (CMV promoter [1]; [14]) was 85,172.59 RLU/μg.

`CC(/C=C/C(=O)NO)=C\[C@@H](C)C(=O)c1ccc(N(C)C)cc1` [TSA, Trichostatin A] showed an RLU/mg (CMV promoter [2]; Table 1, 1 μg CMV-BLA + 3 μL F, control plasmid not given) of 8986 RLU/mg, an RLU/mg (CMV promoter [2]; Table 1, 1 μg p21m-BLA + 3 μL F, control plasmid pCMV-Luc or pRSV-Luc, not specified) of 52035 RLU/mg and an RLU/mg (CMV promoter [2]; Table 1, 1 μg p21m-BLA + 5 μL F, control plasmid not given) of 29022.4 RLU/mg. The RLU/mg (CMV promoter [2]; Table 2, 2 μg CMV-BLA + 6 μL F + CMV-luc) was 13085.6 RLU/mg, the RLU/mg (CMV promoter [2]; Table 2, 2 μg p21BLA + 6 μL F + CMV-luc) was 105942 RLU/mg and the RLU/mg (RSV promoter; 1 μg CMV-BLA + 3 μL F + RSV-luc) was 7964.46 RLU/mg. It also gave an RLU/mg (RSV promoter; 1 μg p21m-BLA + 3 μL F + RSV-luc) of 24437.8 RLU/mg, an RLU/mg (RSV promoter; 2 μg CMV-BLA + 6 μL F + RSV-luc) of 4972 RLU/mg and an RLU/mg (RSV promoter; 2 μg p21m-BLA + 6 μL F + RSV-luc) of 29989.4 RLU/mg. For the same molecule, the RLU/mg (CMV promoter [1]; Table 1, 400 nM, 12 hours, 2 μg CMV-BLA + 6 μL F, control plasmid not given) was 14934 RLU/mg, the RLU/mg (CMV promoter [1]; Table 1, 400 nM, 12 hours, 2 μg p21m-BLA + 6 μL F, control plasmid not given) was 50773.9 RLU/mg and the RLU/mg (CMV promoter [1]; Table 1, 400 nM, 12 hours, 2 μg p21m-BLA + 10 μL F, control plasmid not given) was 22499.2 RLU/mg. For the same molecule, the RLU/mg (CMV promoter [1]; Table 2, 400 nM, 12 hours, 1 μg CMV-BLA + 3 μL F + CMV-luc) was 14928.8 RLU/mg, the RLU/mg (CMV promoter [1]; Table 2, 400 nM, 12 hours, 1 μg p21m-BLA + 3 μL F + CMV-luc) was 47709.8 RLU/mg and the RLU/mg (CMV promoter [1]; [3]) was 85379 RLU/mg. For the same molecule, the RLU/mg (CMV promoter [1]; [4]) was 248656.9 RLU/mg, the RLU/mg (CMV promoter [1]; [5]) was 110180.6 RLU/mg and the RLU/mg (CMV promoter [1]; [6]) was 12579.8 RLU/mg. For the same molecule, the RLU/mg (CMV promoter [1]; [7]) was 33592.3 RLU/mg, the RLU/mg (CMV promoter [1]; [8]) was 22233.7 RLU/mg and the RLU norm mean (CMV promoter [1]; [9]) was 0.97. For the same molecule, the RLU/μg (CMV promoter [1]; [9]) was 94,973.90 RLU/μg, the RLU norm mean (CMV promoter [1]; [10]) was 0.97 and the RLU/μg (CMV promoter [1]; [10]) was 95,526.00 RLU/μg. The RLU/μg (CMV promoter [1]; [11]) was 116,091.50 RLU/μg, the RLU norm mean (CMV promoter [1]; [12]) was 0.85 and the RLU/μg (CMV promoter [1]; [12]) was 83,237.58 RLU/μg. The RLU norm mean (CMV promoter [1]; [13]) was 0.89, the RLU/μg (CMV promoter [1]; [13]) was 87,194.70 RLU/μg and the RLU/μg (CMV promoter [1]; [14]) was 111,592.45 RLU/μg. For the same molecule, the “remission from cell cycle arrest” value (HeLa cells) was “complete remission from cell cycle arrest”.
